Reference: patent US9061984B2 (University of Louisville Research Foundation, Inc., priority 2008, dated 2015)
≈ marks a conversion by molar mass, not a printed value. Where two headings read alike, the source gives them in different places.

Legend:
[1] = system: axenic amastigotes of L. amazonensis (strain MHOM/BR/76/LTB-012); conditions: Table 8b; for IC50: read-out: L. amazonensis IC50
[2] = Toxicity to peritoneal macrophages (Trypan Blue count); type: cell-based, BALB/C mouse; conditions: BALB/C, mouse, Cytotoxicity Macrophages IC50
3T3 cells = assay: Cell growth inhibition bioassay (sulforhodamine B); type: cell-based, mouse; conditions: for GI50: Mus musculus, NIH3T3, read-out: GI50 in indicated cell line: 3T3
In short: (§1)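 Cells were exposed to compound alongside matched solvent controls, then stained with sulforhodamine B. Percent growth inhibition was calculated from dye absorbance against the control.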

M. tuberculosis H37Rv [3] = assay: Conventional aerobic (MABA) culture assay, luminescence MIC; type: cell-based, Mycobacterium tuberculosis; conditions: for MIC: Mycobacterium tuberculosis, 168 h; for MIC / MIC MABA: aerobic, 7 days, H37Rv; for Selectivity Index H37Rv: VERO vs MABA MIC
M. tuberculosis H37Rv [4] = assay: Anti-tuberculosis bioassay (tetrazolium microplate MIC); type: cell-based; conditions: Mycobacterium tuberculosis, read-out: Mycobacterium MIC H37Rv, Table 5
M. tuberculosis MDR = assay: as above; type: cell-based; conditions: Mycobacterium tuberculosis, read-out: Mycobacterium MIC MDR
K562 cells = assay: Cell growth inhibition bioassay (sulforhodamine B); type: cell-based, human; conditions: 48 h, SRB; for GI50: Homo sapiens, K562, read-out: GI50 in indicated cell line: K562
In short: as §1

M-14 cells = assay: Cell growth inhibition bioassay (sulforhodamine B); type: cell-based, human; conditions: 48 h, SRB; for GI50: Homo sapiens, M14, read-out: GI50 in indicated cell line: M-14
In short: as §1

DU145 cells = assay: Cell growth inhibition bioassay (sulforhodamine B); type: cell-based, human; conditions: 48 h, SRB; for GI50: Homo sapiens, DU-145, read-out: GI50 in indicated cell line: DU145
In short: as §1

HT-29 cells = assay: Cell growth inhibition bioassay (sulforhodamine B); type: cell-based, human; conditions: 48 h, SRB; for GI50: Homo sapiens, HT-29, read-out: GI50 in indicated cell line: HT-29
In short: as §1

H460 cells = assay: Cell growth inhibition bioassay (sulforhodamine B); type: cell-based, human; conditions: 48 h, SRB; for GI50: Homo sapiens, NCI-H460, read-out: GI50 in indicated cell line: H460
In short: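 Growth inhibition was measured colorimetrically with sulforhodamine B staining and expressed as percent inhibition relative to solvent-treated controls. Cell lines were human: MCF-7 breast adenocarcinoma, DU145 and PC3 prostate carcinoma/adenocarcinoma, H460 large cell lung cancer.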

MCF-7 cells = assay: Cell growth inhibition bioassay (sulforhodamine B); type: cell-based, human; conditions: 48 h, SRB; for GI50: Homo sapiens, MCF7, read-out: GI50 in indicated cell line: MCF-7
In short: as §1

[5] = Cytotoxicity on VERO cells (MTT), anti-T. cruzi study; conditions: African green monkey, VERO cells
[6] = system: axenic amastigotes of L. amazonensis (strain MHOM/BR/76/LTB-012); assay: microbe, parasite or virus in culture; conditions: Leishmania amazonensis
[7] = system: Trypanosoma cruzi (Tulahuen C4); assay: In vitro anti-T. cruzi activity (β-galactosidase CPRG colorimetric assay in VERO monolayer); type: cell-based; conditions: for Selectivity Index Lab B: IC50, VERO/IC50, T. cruzi
VERO cells [8] = assay: Cell growth inhibition bioassay (sulforhodamine B); type: cell-based, African Green Monkey; conditions: 48 h, SRB; for GI50: Chlorocebus sabaeus, Vero, read-out: GI50 in indicated cell line: VERO
In short: as §1

[9] = Cytotoxicity VERO cell (Table 6); conditions: African green monkey, VERO cells
[10] = system: non-replicating persistence Mycobacterium tuberculosis (NRP-TB); assay: Low oxygen recovery assay (LORA); type: cell-based; conditions: value in brackets; for MIC: Mycobacterium tuberculosis, anaerobic 10 days, 28 hour recovery; for Selectivity Index LORA: VERO vs LORA MIC
peritoneal macrophages = assay: Toxicity to peritoneal macrophages (Trypan Blue count); type: cell-based, BALB/C mouse
VERO cell = assay: Cytotoxicity VERO cell (Table 6); conditions: Table 6
VERO cells [11] = assay: Cytotoxicity on VERO cells (MTT), anti-T. cruzi study; conditions: Lab B
[12] = Trypanosoma cruzi, TULAHUEN, Vero, Lab A, read-out: T. cruzi IC50 Lab A
[13] = Trypanosoma cruzi, TULAHUEN, Vero, Lab B, read-out: T. cruzi IC50 Lab B

Compound	Selectivity Index [1]	IC50 at 48 h [2]	GI50 (3T3 cells; 48 h, SRB)	MIC (M. tuberculosis H37Rv [3])	GI50 (K562 cells)	GI50 (M-14 cells)	GI50 (DU145 cells)	GI50 (HT-29 cells)	GI50 (H460 cells)	GI50 (MCF-7 cells)	IC50 ([6]; read-out: L. amazonensis IC50)	IC50 [7, 12]	GI50 (VERO cells [8])	Selectivity Index H37Rv (M. tuberculosis H37Rv [3])	IC50 [9]	IC50 ([5]; Cytotoxicity VERO Lab B, Lab B)	Selectivity Index Lab B ([7]; Lab B)	IC50 [7, 13]	MIC [10]	Selectivity Index LORA [10]	further results
COc1cc(/C=N\Nc2ncnc3sc4c(c23)CCCC4)cc(OC)c1O [II-16]	3.0	46.4 µM	10.5 µg/mL (≈ 27.3 µM)	> 100 µg/mL	> 62.5 µg/mL	> 62.5 µg/mL	10.5 µg/mL (≈ 27.3 µM)	> 62.5 µg/mL	> 62.5 µg/mL	> 62.5 µg/mL	15.7 µM	4.9 µg/mL (≈ 12.7 µM)	> 62.5 µg/mL								MIC (M. tuberculosis H37Rv [4]): > 25 µg/mL; MIC (M. tuberculosis MDR): > 25 µg/mL; IC50 ([5]; IC50 - VERO Cytotoxicity, Table 2): 124 µg/mL (≈ 323 µM); IC50 ([6]; read-out: IC50 Cytotoxicity Against Amastigotes): 21.9 µM; inhibition at 10 µg/mL ([7]; Trypanosoma cruzi, TULAHUEN, Vero, 120 h, 10 μg/mL of each compound, 120 hours, read-out: T. cruzi Inhib. (%)): 58.6%; IC50 ([7]; Trypanosoma cruzi, TULAHUEN, Vero, Table 2, read-out: IC50 - T. cruzi): 8.74 µg/mL (≈ 22.7 µM)
FC(F)(F)c1ccc(/C=N\Nc2ncnc3sc4c(c23)CCCC4)cc1 [II-24]	4.1	3.1 µM	4 µg/mL (≈ 10.6 µM)	6.1 µg/mL (≈ 16.2 µM)	2.5 µg/mL (≈ 6.64 µM)	6.4 µg/mL (≈ 17 µM)	5.6 µg/mL (≈ 14.9 µM)	2.6 µg/mL (≈ 6.91 µM)	5.8 µg/mL (≈ 15.4 µM)	2 µg/mL (≈ 5.31 µM)	0.7 µM		5.4 µg/mL (≈ 14.3 µM)	5.5 (5.5)	33.5 µg/mL (≈ 89 µM)	3 µg/mL (≈ 7.97 µM)	0.8	4 µg/mL (≈ 10.6 µM)	6 µg/mL (≈ 15.9 µM)	5.5 (5.5)	
C(=N/Nc1ncnc2sc3c(c12)CCCC3)/c1ccco1 [II-18]	0.6	0.7 µM	2.3 µg/mL (≈ 7.71 µM)	11.9 µg/mL (≈ 39.9 µM)	1.2 µg/mL (≈ 4.02 µM)	3.3 µg/mL (≈ 11.1 µM)	4.7 µg/mL (≈ 15.8 µM)	2.5 µg/mL (≈ 8.38 µM)	2.1 µg/mL (≈ 7.04 µM)	0.3 µg/mL (≈ 1.01 µM)	1.2 µM	1.2 µg/mL (≈ 4.02 µM)	2.6 µg/mL (≈ 8.71 µM)	1.0	12.3 µg/mL (≈ 41.2 µM)	3 µg/mL (≈ 10.1 µM)	0.6	4.8 µg/mL (≈ 16.1 µM)	2.9 µg/mL (≈ 9.72 µM)	4.3	
Fc1ccc(C=NNc2ncnc3sc4c(c23)CCCC4)cc1 [II-26]																					IC50 [1]: 3.2 µM; IC50 (peritoneal macrophages): 3.1 µM; GI50 in indicated cell line: 3T3 (3T3 cells; 48 h, SRB): 6.7 µg/mL (≈ 20.5 µM); MIC MABA (M. tuberculosis H37Rv [3]): 23.2 µg/mL (≈ 71.1 µM); Cytotoxicity VERO cell (VERO cell): 12.8 µg/mL; GI50 in indicated cell line: K562 (K562 cells): 2.9 µg/mL (≈ 8.88 µM); GI50 in indicated cell line: M-14 (M-14 cells): 5.7 µg/mL (≈ 17.5 µM); GI50 in indicated cell line: DU145 (DU145 cells): 4.5 µg/mL (≈ 13.8 µM); GI50 in indicated cell line: HT-29 (HT-29 cells): 3.4 µg/mL (≈ 10.4 µM); GI50 in indicated cell line: H460 (H460 cells): 3.1 µg/mL (≈ 9.5 µM); GI50 in indicated cell line: MCF-7 (MCF-7 cells): 2.4 µg/mL (≈ 7.35 µM); Cytotoxicity VERO Lab B (VERO cells [11]): 6.0; T. cruzi IC50 Lab A ([7]; Lab A): 1.9 µg/mL; T. cruzi IC50 Lab B ([7]; Lab B): 6.0 µg/mL; GI50 in indicated cell line: VERO (VERO cells [8]): 4.2 µg/mL (≈ 12.9 µM)
NNc1ncnc2sc3c(c12)CCCC3 [PC]																					IC50 [1]: 12 µM; IC50 (peritoneal macrophages; Table 8b, read-out: Cytotoxicity Macrophages IC50): 7.4 µM; GI50 in indicated cell line: 3T3 (3T3 cells): <0.98 µg/mL; MIC MABA (M. tuberculosis H37Rv [3]): 82.5 µg/mL (≈ 374 µM); Cytotoxicity VERO cell (VERO cell): 26.9 µg/mL; GI50 in indicated cell line: K562 (K562 cells): 2.4 µg/mL (≈ 10.9 µM); GI50 in indicated cell line: M-14 (M-14 cells): 5.4 µg/mL (≈ 24.5 µM); GI50 in indicated cell line: DU145 (DU145 cells): 3.1 µg/mL (≈ 14.1 µM); GI50 in indicated cell line: HT-29 (HT-29 cells): 4.6 µg/mL (≈ 20.9 µM); GI50 in indicated cell line: H460 (H460 cells): 2.1 µg/mL (≈ 9.53 µM); GI50 in indicated cell line: MCF-7 (MCF-7 cells): 2.0 µg/mL (≈ 9.08 µM); Cytotoxicity VERO Lab B (VERO cells [11]): 9.0; T. cruzi IC50 Lab A ([7]; Lab A): 4.1 µg/mL; T. cruzi IC50 Lab B ([7]; Lab B): 4.7 µg/mL; GI50 in indicated cell line: VERO (VERO cells [8]): 2.5 µg/mL (≈ 11.3 µM)
